The target in data set [1] is T1, Tripartite terminase subunit 3 (Human betaherpesvirus 5) (UniProt P16732).
T1 sequence (whole entry): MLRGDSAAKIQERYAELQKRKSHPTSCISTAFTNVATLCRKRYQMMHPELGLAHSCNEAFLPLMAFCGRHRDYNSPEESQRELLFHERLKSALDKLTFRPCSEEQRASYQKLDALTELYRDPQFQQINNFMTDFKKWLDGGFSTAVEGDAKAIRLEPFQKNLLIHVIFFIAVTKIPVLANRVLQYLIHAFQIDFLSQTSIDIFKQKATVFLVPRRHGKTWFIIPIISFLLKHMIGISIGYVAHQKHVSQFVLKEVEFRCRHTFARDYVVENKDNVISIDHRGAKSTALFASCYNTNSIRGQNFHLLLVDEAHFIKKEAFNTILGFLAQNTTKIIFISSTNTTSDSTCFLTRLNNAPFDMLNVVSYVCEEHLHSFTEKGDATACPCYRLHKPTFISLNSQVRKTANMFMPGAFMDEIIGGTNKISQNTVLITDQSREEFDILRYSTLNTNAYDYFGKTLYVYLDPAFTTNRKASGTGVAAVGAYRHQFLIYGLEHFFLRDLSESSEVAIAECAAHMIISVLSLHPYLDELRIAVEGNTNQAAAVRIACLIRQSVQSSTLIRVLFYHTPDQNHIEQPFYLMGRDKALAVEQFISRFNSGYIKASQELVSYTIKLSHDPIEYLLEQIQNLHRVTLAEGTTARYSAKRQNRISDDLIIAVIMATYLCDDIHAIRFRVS
Kind of data set: Inhibition of human cytomegalovirus pUL89 endonuclease activity using 60 bp dsDNA substrate at 20 uM incubated for 30 mins by ELISA-based biochemical assay relative to control.

Data set [2] has as its system Human betaherpesvirus 5. The format is functional. The settings on record: Human betaherpesvirus 5, HEL 299, time 168 hrs.
Data set [3] can be described thus: (§1) Cytotoxicity against human HEL 299 cells assessed as cell viability at 10 uM incubated for 168 hrs by MTS-based tetrazolium reduction assay relative to control. The settings on record: HEL 299 cells, read-out: Activity.
A short description of data set [4]: Apparent permeability of the compound incubated for 5 hrs by LC-MS/MS analysis based PAMPA method. The format is ADME. The note with it: for Papp: pampa, 5 h.
The target in data set [5] is T2, Tripartite terminase subunit 3 (Human betaherpesvirus 5, UniProt P16732).
T2 sequence (P16732 whole entry): T1 sequence (whole entry)
Description: Inhibition of human cytomegalovirus pUL89 endonuclease activity using 60 bp dsDNA substrate incubated for 30 mins by ELISA-based biochemical assay

For data set [6], the target named is T1, Tripartite terminase subunit 3 (Human betaherpesvirus 5). The settings on record: dose 20.0 µM.
Data set [7] deals with Human betaherpesvirus 5. The format is functional, cell-based. The settings on record: Human betaherpesvirus 5, HEL 299, 168 h.
Data set [8] relates to HEL 299. The settings on record: human, hel 299, 168 h.
The test system of data set [9] is HEL 299. Described as §1. The settings on record: hel 299, 168 h, 10 µM.

For `CCn1c(Sc2cccc(F)c2)cc(=O)n(O)c1=O`, the inhibition in [1] was 34%. The inhibition at 10 µM in the data set on Human betaherpesvirus 5 [2] was 12%. Also, in data set [3], the viability at 168 h, 10 µM worked out at 126%. In addition, the Papp in data set [4] is given as 3.4 10^-6 cm/s. In [5], this compound yielded an IC50 of 23 µM. For the same compound, the ΔTm in [6] stood at 0.86 °C.

Turning to `Cn1c(Sc2cccc(Cl)c2)cc(=O)n(O)c1=O`, the inhibition in data set [1] was 37%. The inhibition at 10 µM in the data set with Human betaherpesvirus 5 [2] is 74%. In [3], the viability at 168 h, 10 µM was 117%. In the data set with Human betaherpesvirus 5 [7], this compound yielded an EC50 of 4.7 µM. In addition, the CC50 in the data set with HEL 299 [8] stood at 23.1 µM.

`O=C(O)c1cn(Cc2ccc(Cl)c(F)c2)cc(O)c1=O`: the ΔTm in data set [6] came out at 2.4 °C.

Take `Cn1c(Sc2cccc3ccccc23)cc(=O)n(O)c1=O`: in the data set with Human betaherpesvirus 5 [2], the inhibition at 10 µM was 98%. Also, in data set [3], the viability at 168 h, 10 µM amounted to 111%. Also, in [4], the Papp was 5.1 10^-6 cm/s.

As for `CCn1c(Sc2ccc(F)cc2)cc(=O)n(O)c1=O`, in the data set with Human betaherpesvirus 5 [2], the inhibition at 10 µM came to 67%. Besides, the viability at 168 h, 10 µM in data set [3] was found to be 114%. Besides, the Papp in [4] is listed as 4.1 10^-6 cm/s.

As to `CCc1ccc(Sc2cc(=O)n(O)c(=O)n2C)cc1`, the inhibition in data set [1] came to 67%. In addition, the inhibition at 10 µM with Human betaherpesvirus 5 [2] came out at 21%. In addition, the viability at 168 h, 10 µM in data set [3] was found to be 121%. Further, in data set [4], the Papp is listed as 6.6 10^-6 cm/s. The compound further displayed a 50% inhibitory concentration (IC50) in data set [5] of 11.8 µM. Moreover, in [6], the ΔTm is 0.29 °C.

`CCc1ccccc1Sc1cc(=O)n(O)c(=O)n1C`: the inhibition at 10 µM in the data set on Human betaherpesvirus 5 [2] turned out to be 87%. In addition, in data set [3], the viability at 168 h, 10 µM worked out at 108%. Besides, the Papp in [4] is 5.8 10^-6 cm/s.

`Cc1ccc(-c2ccc(Nc3cc(=O)n(O)c(=O)n3C)cc2)cc1`: the IC50 in data set [5] is 3.3 µM. The ΔTm in [6] is -2.8 °C.

Turning to `Cn1c(Sc2ccc(Cl)cc2)cc(=O)n(O)c1=O`, in the data set with Human betaherpesvirus 5 [2], the inhibition at 10 µM stood at 35%. In [3], the viability at 168 h, 10 µM worked out at 132%. Further, the Papp in [4] is 4.5 10^-6 cm/s.

Consider `CCn1c(Sc2ccccc2F)cc(=O)n(O)c1=O`, for which the inhibition in [1] was determined as 75%. For the same compound, the inhibition at 10 µM in the data set on Human betaherpesvirus 5 [2] is -0.7%. In addition, the Activity in the data set on HEL 299 [9] worked out at 124%.

On to `Cn1c(Sc2cccc(Br)c2)cc(=O)n(O)c1=O`, for which the inhibition at 10 µM with Human betaherpesvirus 5 [2] was determined as 100%. In addition, the viability at 168 h, 10 µM in [3] turned out to be 14%. This compound gave an IC50 in data set [5] of 6.5 µM. In addition, the ΔTm in data set [6] turned out to be 0.76 °C.

`Cc1ccc(-c2cccc(Nc3cc(=O)n(O)c(=O)[nH]3)c2)c(C)c1`: in [5], half-maximal inhibition (IC50) was put at 3.5 µM. Besides, in data set [6], the ΔTm was -2.2 °C.

In the case of `COc1ccc(-c2ccc(Sc3cc(=O)n(O)c(=O)[nH]3)cc2)cc1`, the inhibition in data set [1] is 22%. The inhibition at 10 µM in the data set with Human betaherpesvirus 5 [2] turned out to be 80%. Moreover, the viability at 168 h, 10 µM in data set [3] was determined as 94%. The Papp at 5 h in data set [4] (PAMPA) worked out at 11 nm/s. The compound further returned an EC50 in the data set on Human betaherpesvirus 5 [7] of 7.2 µM. The compound also displayed a CC50 in the data set with HEL 299 [8] of 20.3 µM.

As for `O=c1cc(Sc2ccc([N+](=O)[O-])cc2)[nH]c(=O)n1O`, the inhibition in data set [1] came out at 58%. The inhibition at 10 µM in the data set with Human betaherpesvirus 5 [2] is -5.1%. In data set [3], the viability at 168 h, 10 µM came out at 115%. The Papp in data set [4] was 0.017 10^-6 cm/s. For the same compound, half-maximal inhibition in data set [5] (IC50) was put at 3.6 µM. Moreover, the ΔTm in data set [6] came to 2.8 °C.

Regarding `COc1cccc(Sc2cc(=O)n(O)c(=O)[nH]2)c1`, the inhibition in [1] stood at 92%. The inhibition at 10 µM in the data set on Human betaherpesvirus 5 [2] is -13%. Besides, the viability at 168 h, 10 µM in data set [3] worked out at 114%. The Papp in data set [4] is reported as 0.21 10^-6 cm/s. For the same compound, in data set [5], the IC50 was found to be 1.9 µM. Moreover, the ΔTm in data set [6] is 1.8 °C.

For `COc1cccc(Sc2cc(=O)n(O)c(=O)n2C)c1`, the inhibition at 10 µM in the data set with Human betaherpesvirus 5 [2] was 91%. Further, the viability at 168 h, 10 µM in data set [3] came out at 135%. Besides, the Papp in [4] is reported as 2.4 10^-6 cm/s.

On to `CCn1c(Sc2cccc(Cl)c2)cc(=O)n(O)c1=O`, for which the inhibition in data set [1] was found to be 59%. In addition, in the data set with Human betaherpesvirus 5 [2], the inhibition at 10 µM was found to be 101%. The viability at 168 h, 10 µM in data set [3] is 1.3%. In data set [4], the apparent permeability (Papp) is listed as 5.1 10^-6 cm/s. For the same compound, in data set [5], half-maximal inhibition (IC50) was put at 5.7 µM. Also, the ΔTm in [6] stood at 0.74 °C.

For the compound `Cn1c(Sc2ccc(F)cc2)cc(=O)n(O)c1=O`, the inhibition in data set [1] was determined as 90%. Also, the inhibition at 10 µM in the data set with Human betaherpesvirus 5 [2] turned out to be 0%. Moreover, in data set [3], the viability at 168 h, 10 µM was 117%. In addition, in data set [4], the Papp is on record as 3 10^-6 cm/s. This compound also returned an IC50 in data set [5] of 12 µM. Further, the ΔTm in data set [6] came out at 0.86 °C.

Take `Nc1nc(O)c2ncn(COC(CO)CO)c2n1` [GANCICLOVIR]: the CC50 in the data set on HEL 299 [8] is greater than 50 µM.

For the compound `Cn1c(Sc2cccc(F)c2)cc(=O)n(O)c1=O`, in [1], the inhibition is 37%. In addition, in the data set with Human betaherpesvirus 5 [2], the inhibition at 10 µM is -3.8%. The viability at 168 h, 10 µM in [3] amounted to 125%. For the same compound, in data set [4], the Papp is recorded as 2.5 10^-6 cm/s. This compound also came in with an IC50 in data set [5] of 24 µM. Also, in data set [6], the ΔTm is 0.56 °C.

Take `O=c1cc(Sc2cccc(F)c2)[nH]c(=O)n1O`: the inhibition in [1] was 40%. Also, in the data set on Human betaherpesvirus 5 [2], the inhibition at 10 µM worked out at 83%. Moreover, in the data set on HEL 299 [9], the Activity turned out to be 65%.

For `COc1cccc(-c2ccc(Sc3cc(=O)n(O)c(=O)[nH]3)cc2)c1`, the inhibition in [1] came out at 11%. Also, the inhibition at 10 µM in the data set with Human betaherpesvirus 5 [2] stood at 71%. Besides, the viability at 168 h, 10 µM in data set [3] came to 107%.

Regarding `O=c1cc(Sc2ccc(O)cc2)[nH]c(=O)n1O`, the inhibition in [1] was determined as 27%. Further, the inhibition at 10 µM with Human betaherpesvirus 5 [2] was determined as 1%. The viability at 168 h, 10 µM in data set [3] is 118%.
